From patent publication US7501538B2, “Aryl and heteroaryl compounds, compositions and methods of use” (TransTech Pharma, Inc., priority 2003, dated 2009)
Where two headings read alike, the source gives them in different places.

Experiments:
UT-7 cells (UT7/EPO) = assay: Cell Proliferation Assay (AlamarBlue), UT-7; format: cell-based; settings: UT-7 assay, at or below 1000 micromolar compound concentration
Procedure: UT-7 and FDC-P1 cell proliferation was assessed by AlamarBlue (BioSource International Inc., Camarillo, Calif. 93012, USA). Briefly, the cells were plated into 96-well Costar cell culture plate (Corning Incorporated, Corning, N.Y. 14831, USA) at 7000 cells/well and 4000 cells/well for UT7/EPO and FDC-P1 cell line, respectively. The test compound and/or vehicle was added to each well with a final concentration of 1% DMSO and incubated in an atmosphere of 5% CO2 at 37° C. for 66 hours. After a further 6 hour incubation in the presence of AlamarBlue, fluorescent intensity was measured using a SpectraMax Gemini (Molecular Devices, Sunnyvale, Calif. 94089, USA) plate reader, with excitation at 530 nm and emission at 590 nm. The Percent Increase=((RFU Test-RFU Medium)/(RFU Vehicle-RFU Medium)-1)*100. Recombinant human EPO (Research Diagnostics, Inc., Flanders, N.J. 07836, USA) was used in the assay as a positive control.

receptors for EPO = settings: cited from earlier work

CC(C)(C)c1ccc(COc2ccc(C[C@H](NC(=O)c3cc(Cl)ccc3NCc3cccc4ccccc34)C(=O)O)cc2)cc1 [Example 4, (2S)-3-[4-(4-tert-butyl-benzyloxy)-phenyl]-2-{5-chloro-2-[(naphthalen-1-ylmethyl)-amino]-benzoylamino}-propionic acid]
cell proliferation (Percent Increase) (UT-7 cells (UT7/EPO)): < 20%

EPO: 165 amino acid, 34 kilodalton (kDa) glycoprotein hormone regulating red blood cell production
Kd (receptors for EPO; high affinity receptor, read-out: Kd, high affinity receptors for EPO): 0.075 to 0.1 nM
Kd (receptors for EPO; low affinity receptor, read-out: Kd, low affinity receptors for EPO): 0.22 to 0.8 nM
